# Experimental data taken from ChEMBL document CHEMBL2429824, “Computer-assisted design of dual-target anti-HIV-1 compounds” (Med Chem Res, 2013).
# Biological target: Human immunodeficiency virus type 1 reverse transcriptase (Human immunodeficiency virus 1, UniProt Q72547)
# Assay: Inhibition of HIV-1 reverse transcriptase
# Details: not given
row,IC50 [µM],Compound
1,6.31,N#Cc1c(N)cccc1[S+]([O-])c1cc(Cl)ccc1Cl (centres undefined)
2,0.912,COc1cc([S+]([O-])c2cccc(N)c2C#N)cc(C(F)(F)F)c1 (centres undefined)

row,Compound,IC50 [µM]
1,COc1ccc(S(=O)(=O)c2cccc(N)c2C#N)cc1,13.2

# Tested on: Human immunodeficiency virus 1
# Assay: Antiviral activity against HIV-1 infected in human MT-4 cells
# Format: functional, organism-based
# Details: Human immunodeficiency virus 1, MT4
row,IC50 [µM],Compound
1,21.9,CC(C)Oc1nc(N)nc2ncn([C@H]3C[C@H](N=[N+]=[N-])[C@@H](CO)O3)c12
2,12,CCCNc1nc(N)nc2ncn([C@H]3C[C@H](N=[N+]=[N-])[C@@H](CO)O3)c12
3,52.5,CNc1nc(N)nc2ncn([C@H]3C[C@H](N=[N+]=[N-])[C@@H](CO)O3)c12
4,112,[N-]=[N+]=N[C@H]1C[C@H](n2cnc3nc(N)nc(NCCc4ccccc4)c32)O[C@@H]1CO
5,5.01,[N-]=[N+]=N[C@H]1C[C@H](n2cnc3nc(N)nc(O)c32)O[C@@H]1CO
6,28.8,CCCCNc1nc(N)nc2ncn([C@H]3C[C@H](N=[N+]=[N-])[C@@H](CO)O3)c12
7,7.94,[N-]=[N+]=N[C@H]1C[C@H](n2cnc3nc(N)nc(OCc4ccccc4)c32)O[C@@H]1CO
8,5.01,[N-]=[N+]=N[C@H]1C[C@H](n2cnc3nc(N)nc(OC4CCC4)c32)O[C@@H]1CO
9,34.7,N#Cc1c(N)cccc1S(=O)(=O)c1cccc(C(F)(F)F)c1
10,8.91,CCCOc1nc(N)nc2ncn([C@H]3C[C@H](N=[N+]=[N-])[C@@H](CO)O3)c12
11,8.91,COc1nc(N)nc2ncn([C@H]3C[C@H](N=[N+]=[N-])[C@@H](CO)O3)c12
12,11,CCCN(C)c1nc(N)nc2ncn([C@H]3C[C@H](N=[N+]=[N-])[C@@H](CO)O3)c12
13,22.9,CCOc1nc(N)nc2ncn([C@H]3C[C@H](N=[N+]=[N-])[C@@H](CO)O3)c12
14,6.03,[N-]=[N+]=N[C@H]1C[C@H](n2cnc3nc(N)nc(Cl)c32)O[C@@H]1CO
15,28.2,[N-]=[N+]=N[C@H]1C[C@H](n2cnc3nc(N)nc(Oc4ccccc4)c32)O[C@@H]1CO
16,12,CCN(C)c1nc(N)nc2ncn([C@H]3C[C@H](N=[N+]=[N-])[C@@H](CO)O3)c12
17,20.9,CN(C)c1nc(N)nc2ncn([C@H]3C[C@H](N=[N+]=[N-])[C@@H](CO)O3)c12
18,0.912,COc1cccc(S(=O)(=O)c2cccc(N)c2C#N)c1
19,2,[N-]=[N+]=N[C@H]1C[C@H](n2cnc3nc(N)nc(N)c32)O[C@@H]1CO
20,18.2,[N-]=[N+]=N[C@H]1C[C@H](n2cnc3nc(N)nc(NC4CC4)c32)O[C@@H]1CO
21,7.94,[N-]=[N+]=N[C@H]1C[C@H](n2cnc3nc(N)nc(N4CCCC4)c32)O[C@@H]1CO
22,8.91,[N-]=[N+]=N[C@H]1C[C@H](n2cnc3nc(N)nc(N4CCC4)c32)O[C@@H]1CO
23,17,CCNc1nc(N)nc2ncn([C@H]3C[C@H](N=[N+]=[N-])[C@@H](CO)O3)c12
24,19.1,CCCCOc1nc(N)nc2ncn([C@H]3C[C@H](N=[N+]=[N-])[C@@H](CO)O3)c12
25,3.98,CN(c1nc(N)nc2ncn([C@H]3C[C@H](N=[N+]=[N-])[C@@H](CO)O3)c12)C1CC1
26,14.1,[N-]=[N+]=N[C@H]1C[C@H](n2cnc3nc(N)nc(NC4CCC4)c32)O[C@@H]1CO
